Data published in patent publication EP1561465A2, “Methods of use of fluoroquinolone compounds against bacteria” (LG Life Sciences, Ltd., priority 1999, dated 2001).
In brackets after ≈: the same amount, converted by molar mass.

Tests used:
Type in all cases: cell-based
[1] = system: Streptococcus pneumoniae; test: MIC by NCCLS reference broth microdilution, 450 respiratory tract pathogens; details: Streptococcus pneumoniae
[2] = system: Moraxella catarrhalis; test: as above
[3] = system: Moraxella catarrhalis; test: MIC by two-fold serial agar dilution, Sensitivity Disk agar-N (Kitasato isolates); details: Moraxella catarrhalis (22)
[4] = system: Streptococcus pneumoniae; test: as above; details: for MIC90: read-out: MIC90; for MIC: read-out: MIC Range
[5] = system: Enterococcus faecium; test: MIC by NCCLS broth microdilution, 1100 Japanese clinical isolates 1997-1998; details: for MIC: Enterococcus faecium
[6] = system: Escherichia coli; test: as above; details: for MIC50 / MIC90: Escherichia coli
[7] = system: Enterobacter aerogenes; test: as above; details: Enterobacter aerogenes (n=35)
[8] = system: Gram positive anaerobic and facultative anaerobic pathogens; test: microbe, parasite or virus in culture
[9] = MIC by agar dilution, Brucella HK agar, 491 anaerobic clinical isolates; details: clinical isolates of Bacteroides spp., Prevotella bivia and other Prevotella spp.
[10] = Streptococcus pneumoniae (n = 100)
[11] = erythromycin resistant M phenotype (n = 16)
[12] = erythromycin resistant MLSB phenotype (n = 16)
[13] = penicillin intermediate (n = 16)
[14] = penicillin susceptible (n = 20)
[15] = Escherichia coli ciprofloxacin resistant (n=5)
[16] = Escherichia coli ciprofloxacin susceptible (n=37)

Structure (SMILES): C[C@@H]1CN(c2c(F)c(N)c3c(=O)c(C(=O)O)cn(C4CC4)c3c2F)C[C@H](C)N1 [Sparfloxacin, sparfloxacin]
- MIC [1, 10]: 0.12 to 1 µg/mL (≈ 0.306 to 2.55 µM)
- MIC50 [1, 10]: 0.5 µg/mL (≈ 1.27 µM)
- MIC90 [1, 10]: 0.5 µg/mL (≈ 1.27 µM)
- MIC [1, 11]: 0.25 µg/mL (≈ 0.637 µM)
- MIC50 [1, 11]: 0.25 µg/mL (≈ 0.637 µM)
- MIC90 [1, 11]: 0.25 µg/mL (≈ 0.637 µM)
- MIC [1, 12]: 0.12 to 0.5 µg/mL (≈ 0.306 to 1.27 µM)
- MIC50 [1, 12]: 0.25 µg/mL (≈ 0.637 µM)
- MIC90 [1, 12]: 0.25 µg/mL (≈ 0.637 µM)
- MIC ([1]; multi-drug resistant (n = 16)): 0.12 to 0.5 µg/mL (≈ 0.306 to 1.27 µM)
- MIC50 ([1]; multi-drug resistant (n = 16)): 0.5 µg/mL (≈ 1.27 µM)
- MIC90 ([1]; multi-drug resistant (n = 16)): 0.5 µg/mL (≈ 1.27 µM)
- MIC [1, 13]: 0.5 to 1 µg/mL (≈ 1.27 to 2.55 µM)
- MIC50 [1, 13]: 0.5 µg/mL (≈ 1.27 µM)
- MIC90 [1, 13]: 0.5 µg/mL (≈ 1.27 µM)
- MIC ([1]; penicillin resistant (n = 18)): 0.25 to 1 µg/mL (≈ 0.637 to 2.55 µM)
- MIC50 ([1]; penicillin resistant (n = 18)): 0.5 µg/mL (≈ 1.27 µM)
- MIC90 ([1]; penicillin resistant (n = 18)): 1 µg/mL (≈ 2.55 µM)
- MIC [1, 14]: 0.12 to 0.5 µg/mL (≈ 0.306 to 1.27 µM)
- MIC50 [1, 14]: 0.25 µg/mL (≈ 0.637 µM)
- MIC90 [1, 14]: 0.25 µg/mL (≈ 0.637 µM)
- MIC ([2]; Moraxella catarrhalis (n = 50)): 0.00375 to 0.06 µg/mL (≈ 0.00956 to 0.153 µM)
- MIC50 ([2]; Moraxella catarrhalis (n = 50)): 0.015 µg/mL (≈ 0.0382 µM)
- MIC90 ([2]; Moraxella catarrhalis (n = 50)): 0.03 µg/mL (≈ 0.0765 µM)
- MIC ([2]; β-lactamase negative (n = 13)): 0.00375 to 0.06 µg/mL (≈ 0.00956 to 0.153 µM)
- MIC50 ([2]; β-lactamase negative (n = 13)): 0.0075 µg/mL (≈ 0.0191 µM)
- MIC90 ([2]; β-lactamase negative (n = 13)): 0.06 µg/mL (≈ 0.153 µM)
- MIC ([2]; β-lactamase positive (n = 37)): 0.00375 to 0.06 µg/mL (≈ 0.00956 to 0.153 µM)
- MIC50 ([2]; β-lactamase positive (n = 37)): 0.015 µg/mL (≈ 0.0382 µM)
- MIC90 ([2]; β-lactamase positive (n = 37)): 0.03 µg/mL (≈ 0.0765 µM)
- MIC50 [3]: 0.016 µg/mL (≈ 0.0408 µM)
- MIC90 [3]: 0.031 µg/mL (≈ 0.079 µM)
- MIC Range [3]: 0.016 to 0.031 µg/mL
- MIC50 ([4]; Ciprofloxacin-susceptible (94)): 0.125 µg/mL (≈ 0.319 µM)
- MIC Range ([4]; Minocycline-resistant (37)): 0.125 to 8 µg/mL
- MIC50 ([4]; Streptococcus pneumoniae): 0.125 µg/mL (≈ 0.319 µM)
- MIC90 ([4]; Streptococcus pneumoniae, 18 h, Ciprofloxacin-resistant (21), ciprofloxacin MIC ≥8 µg/ml): 8 µg/mL (≈ 20.4 µM)
- MIC ([4]; Streptococcus pneumoniae, 18 h, Ciprofloxacin-resistant (21)): 0.25 to 8 µg/mL (≈ 0.637 to 20.4 µM)
- MIC ([4]; Streptococcus pneumoniae, 18 h, Ciprofloxacin-susceptible (94)): 0.063 to 0.5 µg/mL (≈ 0.161 to 1.27 µM)
- MIC ([4]; Streptococcus pneumoniae, 18 h, Penicillin-resistant (19)): 0.063 to 1 µg/mL (≈ 0.161 to 2.55 µM)
- MIC ([4]; Streptococcus pneumoniae, 18 h): 0.125 to 8 µg/mL (≈ 0.319 to 20.4 µM)
- MIC50 ([4]; Streptococcus pneumoniae, Ciprofloxacin-resistant (21), read-out: MIC50): 4 µg/mL (≈ 10.2 µM)
- MIC90 ([4]; Streptococcus pneumoniae, Ciprofloxacin-susceptible (94)): 0.25 µg/mL (≈ 0.637 µM)
- MIC50 ([4]; Streptococcus pneumoniae, Erythromycin-resistant (37), read-out: MIC50): 0.25 µg/mL (≈ 0.637 µM)
- MIC90 ([4]; Streptococcus pneumoniae, Erythromycin-resistant (37)): 0.5 µg/mL (≈ 1.27 µM)
- MIC50 ([4]; Streptococcus pneumoniae, Minocycline-resistant (37), read-out: MIC50): 0.25 µg/mL (≈ 0.637 µM)
- MIC90 ([4]; Streptococcus pneumoniae, Minocycline-resistant (37)): 0.5 µg/mL (≈ 1.27 µM)
- MIC90 ([4]; Streptococcus pneumoniae, Penicillin-resistant (19)): 0.5 µg/mL (≈ 1.27 µM)
- MIC50 ([5]; Enterococcus faecium (n=39)): 32 µg/mL (≈ 81.5 µM)
- MIC90 ([5]; Enterococcus faecium (n=39)): 64 µg/mL (≈ 163 µM)
- MIC Range ([5]; Enterococcus faecium (n=39)): 0.5 to 128 µg/mL
- MIC ([5]; Enterococcus faecium (vanA) vancomycin resistant, strain TMS1): 32 µg/mL (≈ 81.5 µM)
- MIC ([5]; Enterococcus faecium (vanA) vancomycin resistant, strain TMS2): 0.5 µg/mL (≈ 1.27 µM)
- MIC ([5]; Enterococcus faecium (vanA) vancomycin resistant, strain TMS3): 64 µg/mL (≈ 163 µM)
- MIC ([5]; Enterococcus faecium (vanA) vancomycin resistant, strain TMS4): 64 µg/mL (≈ 163 µM)
- MIC ([5]; Enterococcus faecium (vanA) vancomycin resistant, strain TMS5): 2 µg/mL (≈ 5.1 µM)
- MIC ([5]; Enterococcus laecium (van B) vancomycin resistant, strain TMS6): 64 µg/mL (≈ 163 µM)
- MIC ([5]; Enterococcus laecium (van B) vancomycin resistant, strain TMS7): 32 µg/mL (≈ 81.5 µM)
- MIC Range [6, 15]: 8 to 128 µg/mL
- MIC Range [6, 16]: ≤0.008 to 0.25 µg/mL
- MIC50 [6, 15]: 32 µg/mL (≈ 81.5 µM)
- MIC90 ([6]; Escherichia coli ciprofloxacin resistant (n=5), values marked *: MIC80 value): 128 µg/mL (≈ 326 µM)
- MIC50 [6, 16]: 0.016 µg/mL (≈ 0.0408 µM)
- MIC90 [6, 16]: 0.032 µg/mL (≈ 0.0815 µM)
- MIC Range [7]: 0.016 to 0.25 µg/mL
- MIC50 ([7]; Klebsiella aerogenes): 0.032 µg/mL (≈ 0.0815 µM)
- MIC90 ([7]; Klebsiella aerogenes): 0.063 µg/mL (≈ 0.161 µM)
- MIC ([8]; Bifidobacterium adolescentis, ATCC15703): 0.5 µg/mL (≈ 1.27 µM)
- MIC ([8]; Bifidobacterium bifidum, JCM1255): 2 µg/mL (≈ 5.1 µM)
- MIC ([8]; Bifidobacterium breve, ATCC15700): 2 µg/mL (≈ 5.1 µM)
- MIC ([8]; Bifidobacterium longum, ATCC15707): 2 µg/mL (≈ 5.1 µM)
- MIC ([8]; Bifidobacterium pseudolongum, ATCC25526): 2 µg/mL (≈ 5.1 µM)
- MIC ([8]; Clostridioides difficile): 8 µg/mL (≈ 20.4 µM)
- MIC ([8]; Clostridium perfringens, ATCC13124): 0.125 µg/mL (≈ 0.319 µM)
- MIC ([8]; Clostridium septicum, ATCC12464): 0.125 µg/mL (≈ 0.319 µM)
- MIC ([8]; Cutibacterium acnes, ATCC11828): 0.25 µg/mL (≈ 0.637 µM)
- MIC ([8]; Eggerthella lenta, ATCC25559): 0.5 µg/mL (≈ 1.27 µM)
- MIC ([8]; Finegoldia magna, ATCC29328): 0.125 µg/mL (≈ 0.319 µM)
- MIC ([8]; Gemella morbillorum, ATCC27824): 0.25 µg/mL (≈ 0.637 µM)
- MIC ([8]; Lacticaseibacillus casei, JCM1134): 0.125 µg/mL (≈ 0.319 µM)
- MIC ([8]; Lactiplantibacillus plantarum, JCM1149): 8 µg/mL (≈ 20.4 µM)
- MIC ([8]; Lactobacillus acidophilus, JCM1132): 32 µg/mL (≈ 81.5 µM)
- MIC ([8]; Levilactobacillus brevis, JCM1059): 2 µg/mL (≈ 5.1 µM)
- MIC ([8]; Ligilactobacillus salivarius, JCM1231): 0.5 µg/mL (≈ 1.27 µM)
- MIC ([8]; Limosilactobacillus reuteri, JCM1112): 2 µg/mL (≈ 5.1 µM)
- MIC ([8]; Limosilactobacillus reuteri, JCM1173): 2 µg/mL (≈ 5.1 µM)
- MIC ([8]; Paraclostridium sordellii, ATCC9714): 2 µg/mL (≈ 5.1 µM)
- MIC ([8]; Parvimonas micra): 0.5 µg/mL (≈ 1.27 µM)
- MIC ([8]; Peptoniphilus asaccharolyticus): 0.25 µg/mL (≈ 0.637 µM)
- MIC ([8]; Peptoniphilus indolicus): 0.06 µg/mL (≈ 0.153 µM)
- MIC ([8]; Peptostreptococcus anaerobius, ATCC27337): 0.5 µg/mL (≈ 1.27 µM)
- MIC ([8]; Schaalia odontolytica): 4 µg/mL (≈ 10.2 µM)
- MIC ([8]; Staphylococcus saccharolyticus, ATCC14953): 0.25 µg/mL (≈ 0.637 µM)
- MIC ([8]; Streptococcus constellatus, ATCC27823): 0.5 µg/mL (≈ 1.27 µM)
- MIC ([8]; Streptococcus intermedius, ATCC27335): 0.5 µg/mL (≈ 1.27 µM)
- MIC ([8]; Thomasclavelia ramosa, ATCC25582): 4 µg/mL (≈ 10.2 µM)
- MIC90 [9]: 4 to 32 µg/mL (≈ 10.2 to 81.5 µM)
